From PMC6925341 (SLAS discovery : advancing life sciences R & D, 2019)
Read-outs that look alike come from different tables or passages of the source.

Tests used:
293FT cells = assay: cells; format: cell-based, Human; details: for IC50: read-out: 293FT Cell Viability IC50; for cell viability IC50: control validation, known inhibitor
HPV16-PsV = assay: organism not typed; format: cell-based, HPV-16; details: for IC50: read-out: HPV Infection IC50; for reduction of HPV-16PsV infection, fold change compared with the control of cells only: 30 μM, secondary stock
SV40 promoter = SV40 promoter transfection in 293FT cells; format: cell-based; details: 30.0 μM, vs SV40 with no drug; data not shown
in vitro = format: cell-based, Human; details: human

Compound: CNCCC=C1c2ccccc2CCc2ccccc21 [Nortriptyline]
- IC50 (293FT cells; Homo sapiens): > 15 µM
- IC50 (HPV16-PsV; 72 h): 6 µM

Compound: N=C(N)c1ccc(OCCCCCOc2ccc(C(=N)N)cc2)cc1 [Pentamidine]
- effect on SV40 promoter activity (SV40 promoter): did not significantly affect
- viability at 30 µM (in vitro): > 95%
- IC50 (293FT cells; Homo sapiens): 9 µM
- cellular cytotoxicity (293FT cells; human): < 10.0%
- reduction of HPV-16PsV infection, fold change compared with the control of cells only (HPV16-PsV): twofold
- IC50 (HPV16-PsV; 72 h): 2 µM

Compound: Cc1nccn1CC1CCc2c(c3ccccc3n2C)C1=O (centres unmarked) [Ondansetron]
- IC50 (HPV16-PsV; 72 h): 5 µM

Compound: CC[C@@]1(O)C(=O)OCc2c1cc1n(c2=O)Cc2cc3c([N+](=O)[O-])cccc3nc2-1 [Rubitecan]
- IC50 (HPV16-PsV; 72 h): 0.8 µM

Compound: O=c1[nH]c(=O)n([C@H]2C[C@H](O)[C@@H](CO)O2)cc1F [Floxuridine]
- IC50 (HPV16-PsV; 72 h): < 0.007 µM

Compound: O=C1[O][Pt]2([NH][C@@H]3CCCC[C@H]3[NH]2)[O]C1=O [Oxaliplatin]
- IC50 (293FT cells): 8 µM
- IC50 (HPV16-PsV): 1 µM

Compound: N=c1ccn2c(n1)O[C@H]1[C@H](O)[C@@H](CO)O[C@H]12 [Ancitabine]
- IC50 (293FT cells; Homo sapiens): 5 µM
- IC50 (HPV16-PsV; 72 h): < 0.007 µM

Compound: COc1cc(NS(C)(=O)=O)ccc1Nc1c2ccccc2nc2ccccc12 [Amsacrine]
- IC50 (293FT cells; Homo sapiens): 1 µM
- IC50 (HPV16-PsV; 72 h): 0.01 µM

Compound: Carrageenan
- cell viability IC50 (293FT cells): ≥ 2 µg/mL

Compound: heparin
- cell viability IC50 (293FT cells): 83.0 µg/mL
- inhibition of HPV 16-PsV infection IC50 (HPV16-PsV; control validation, known inhibitor): 24 µg/mL

Compound: O=c1[nH]c(=O)n([C@H]2C[C@H](O)[C@@H](CO)O2)cc1F [Fluorodeoxyuridine]
- IC50 (293FT cells): 13 µM
- IC50 (HPV16-PsV): 4 µM

Compound: COc1cc([C@@H]2c3cc4c(cc3[C@@H](O[C@@H]3O[C@@H]5CO[C@@H](C)O[C@H]5[C@H](O)[C@H]3O)[C@H]3COC(=O)[C@H]23)OCO4)cc(OC)c1O [Etoposide]
- IC50 (293FT cells; Homo sapiens): 1 µM
- IC50 (HPV16-PsV; 72 h): 0.01 µM

Compound: O=c1[nH]cc(F)c(=O)[nH]1 [Fluorouracil]
- IC50 (293FT cells; Homo sapiens): 13 µM
- IC50 (HPV16-PsV; 72 h): 1 µM

Compound: O=C1C=C2C=C[C@@H]3C[C@@]2(O1)[C@H]1CCCCN31 [Securinine]
- effect on SV40 promoter activity (SV40 promoter): did not significantly affect
- viability at 30 µM (in vitro): > 95%
- IC50 (293FT cells; Homo sapiens): 4 µM
- cellular cytotoxicity (293FT cells; lead drugs, triplicate): < 10.0%
- reduction of HPV-16PsV infection, fold change compared with the control of cells only (HPV16-PsV): 1.5 fold
- IC50 (HPV16-PsV; 72 h): 2 µM

Compound: O=[N+]([O-])C(Br)(CO)CO [Bronopol]
- IC50 (293FT cells; Homo sapiens): 7 µM
- IC50 (HPV16-PsV; 72 h): 3 µM

Compound: Bleomycin
- IC50 (293FT cells): 2 µM
- IC50 (HPV16-PsV): < 0.007 µM

Compound: C[C@H]1O[C@@H](n2cc(F)c(=O)[nH]c2=O)[C@H](O)[C@@H]1O [Doxifluridine]
- IC50 (293FT cells; Homo sapiens): 16 µM
- IC50 (HPV16-PsV; 72 h): 5 µM

Compound: Cc1cc2nc3ccc(N(C)C)cc3[s+]c2cc1N [Tolonium chloride]
- IC50 (293FT cells; Homo sapiens): 4 µM
- IC50 (HPV16-PsV; 72 h): 2 µM

Compound: Cc1cc(C2CCCCC2)n(O)c(=O)c1 [Ciclopirox]
- IC50 (293FT cells; Homo sapiens): 8 µM
- IC50 (HPV16-PsV; 72 h): 2 µM

Compound: Nc1nc(Cl)nc2c1ncn2[C@@H]1O[C@H](CO)[C@@H](O)[C@@H]1F [Clofarabine]
- IC50 (293FT cells; Homo sapiens): 2 µM

Compound: Nc1nc(Cl)nc2c1ncn2[C@H]1C[C@H](O)[C@@H](CO)O1 [Cladribine]
- IC50 (293FT cells; Homo sapiens): 4 µM
